The values that follow come from US7718651B2, “Inhibitors of FtsZ and uses thereof” (priority 2002, dated 2010).

For one experiment, the system named is M. tuberculosis H37Rv. Nature of the experiment: microbe, parasite or virus in culture. The following applies: M. tuberculosis H37Rv, screen concentration 12.5 g/ml [sic], Table 8. It is filed as cell-based.
On to `CCOC(=O)Nc1cc(NCC(=O)c2ccc(C(F)(F)F)cc2)c([N+](=O)[O-])c(N)n1` [Compound A222], for which the “% Inh” value was 0%. For `CCOC(=O)Nc1cc2[nH]c(-c3ccccc3)nc2c(N(CCc2ccccc2)Cc2ccccc2)n1` [Compound A31], the “% Inh” value worked out at 97%. The same measure, in the same setting: the figure for `CCOC(=O)Nc1cc(Cl)c([N+](=O)[O-])c(N)n1` [Compound A106] is 49%; for `CCOC(=O)Nc1cc(NC(C)C(=O)Cc2ccccc2)c([N+](=O)[O-])c(N)n1` (stereo not drawn) [Compound A313] it is −21%.

Take `CCOC(=O)Nc1cc(NCC(=O)CCc2ccccc2)c([N+](=O)[O-])c(N)n1` [Compound A135]: the “% Inh” value was 22%. Still for that read-out and setting: next, `CCOC(=O)Nc1cc(NC(C)CCCN(CC)CC)c([N+](=O)[O-])c(N)n1.Cl` (stereo not drawn) [Compound A269]: 0%; `CCOC(=O)Nc1cc2c(c(N)n1)N=C(c1ccc(OC)cc1)CO2` [Compound A192]: 0%.

Turning to `CCOC(=O)Nc1cc2[nH]c(-c3ccc(OC)cc3)nc2c(N)n1` [Compound A114], the “% Inh” value worked out at 41%. Still for that read-out and setting: the figure for `CCOC(=O)Nc1cc(NCc2ccccc2)c2nc[nH]c2n1` [Compound A111] is 43%; for `CCOC(=O)Nc1cc(NCCc2ccc(S(N)(=O)=O)cc2)c([N+](=O)[O-])c(N)n1` [Compound A126] it is 30%; for `CCOC(=O)Nc1cc2c(c(N)n1)[N+](=O)OC(c1ccccc1)N[N-]2` (stereo not drawn) [Compound A214] it is 0%. The same measure, in the same setting: the figure for `CCOC(=O)Nc1cc(NCC(O)CN(C)C)c([N+](=O)[O-])c(N)n1` (stereo not drawn) [Compound A232] is 0%; for `CCOC(=O)Nc1cc2[nH]c(-c3ccc(C)cc3)nc2c(N(CC)CC)n1` [Compound A13] it is 98%; for `CCOC(=O)Nc1cc2oc(=O)c(-c3ccccc3)nc2c(N)n1` [Compound A228] it is 0%.

On to `CCOC(=O)Nc1cc(N[C@@H](C)[C@@H](O)c2ccc(O)cc2)c([N+](=O)[O-])c(N)n1` [Compound A178], for which the “% Inh” value is listed as 4%. Same read-out and setting: the figure for `CCOC(=O)Nc1cc(NC/C(=N/O)c2ccc(C(F)(F)F)cc2)c([N+](=O)[O-])c(N)n1` [Compound A221] is 0%. On the same count and under the same terms, the figure for `CCOC(=O)Nc1cc(NC(C)C(O)c2ccc(O)cc2)c(N)c(N)n1` (stereo not drawn) [Compound A179] is 4%. Still for that read-out and setting: the figure for `CCOC(=O)Nc1cc(N)c([N+](=O)[O-])c(Cl)n1` [Compound A76] is 72%; for `CCOC(=O)Nc1cc(NCC(O)CN(C)c2ccc(Cl)cc2)c([N+](=O)[O-])c(N)n1` (stereo not drawn) [Compound A122] it is 31%; for `CCOC(=O)Nc1cc2c(c(N)n1)N=C(c1cccc(OC)c1)CO2` [Compound A190] it is 0%. For `CCOC(=O)Nc1cc(NC(c2ccccc2)c2ccccc2)c([N+](=O)[O-])c(NC/C(=N/O)c2ccc(Cl)cc2)n1` [Compound A130], the “% Inh” value came to 28%. On the same count and under the same terms, next, `CCOC(=O)Nc1cc(NCC(O)CN(C)c2ccccc2)c2nc(O)[nH]c2n1` (stereo not drawn) [Compound A63]: 86%; `CCOC(=O)Nc1cc2[nH]c(-c3ccc(C)cc3)nc2c(N(CCc2ccccc2)Cc2ccccc2)n1` [Compound A145]: 16%.

In the case of `CCOC(=O)N(Cc1ccccc1)c1cc(Cl)c([N+](=O)[O-])c(N)n1` [Compound A293], the “% Inh” value came to 0%. The same measure, in the same setting: the figure for `CCOC(=O)Nc1cc(NC(c2ccccc2)c2ccccc2)c(N)c(N)n1` [Compound A117] is 40%.

Take `COc1ccc(OC)c(-c2nc3c(N(CCc4ccccc4)Cc4ccccc4)nc(NC(=O)O)cc3[nH]2)c1` [Compound A30]: the “% Inh” value is recorded as 97%. Turning to `CCOC(=O)Nc1cc(N)c([N+](=O)[O-])c(NC(c2ccccc2)c2ccccc2)n1` [Compound A142], the “% Inh” value amounted to 18%. Same read-out and setting: next, `CCOC(=O)Nc1cc(N)c([N+](=O)[O-])c(NC(=O)OCC)n1` [Compound A272]: 0%. Same read-out and setting: the figure for `CCOC(=O)Nc1cc2[nH]c(-c3ccccc3)nc2c(Cl)n1` [Compound A219] is 0%. In the case of `CCOC(=O)Nc1cc(NC(C)CCCN(CC)CC)c2ncc(C)nc2n1` (stereo not drawn) [Compound A254], the “% Inh” value was 0%. Still for that read-out and setting: next, `CCOC(=O)Nc1cc(NC(c2ccccc2)c2ccccc2)c2ncc(-c3ccc(Cl)cc3)nc2n1` [Compound A261]: 0%; `CCOC(=O)Nc1cc(N)c2nc(O)[nH]c2n1` [Compound A275]: 0%; `CCOC(=O)Nc1cc2c([nH]c(=S)n2/N=C/c2ccc3c(c2)OCO3)c(N)n1` [Compound A241]: 0%. Same read-out and setting: the figure for `CCOC(=O)Nc1cc(N/N=C/c2ccccc2)c2[nH]c(=S)[nH]c2n1` [Compound A71] is 75%; for `CCOC(=O)Nc1cc(N[C@@H](C)C(O)c2ccccc2)c([N+](=O)[O-])cn1` (stereo partly drawn) [Compound A309] it is −10%. Same read-out and setting: the figure for `CCOC(=O)Nc1cc2c(c(N)n1)N=C(c1ccc(Cl)cc1)CO2` [Compound A226] is 0%; for `CCOC(=O)Nc1cc(NC(C)/C(=N/O)c2ccc(O)cc2)c([N+](=O)[O-])c(N)n1` (stereo not drawn) [Compound A186] it is 1%. As for `CCOC(=O)Nc1cc(N)c(N)c(N)n1` [Compound A156], the “% Inh” value came to 10%.

Take `CCOC(=O)Nc1cc(Cl)c2nn[nH]c2n1` [Compound A215]: the “% Inh” value was determined as 0%.

As for `CCOC(=O)Nc1cc2c(c(N)n1)N=C(Cc1ccccc1)[C@H](C)N2` [Compound A74], the “% Inh” value turned out to be 72%.

As for `CCOC(=O)Nc1cc(Nc2ccc(Cl)cc2)c2ncc(-c3ccc(Cl)cc3)nc2n1` [Compound A258], the “% Inh” value was 0%.

`C=CCNc1cc(NC(=O)OCC)nc(N)c1[N+](=O)[O-]` [Compound A279]: the “% Inh” value is given as 0%. Same read-out and setting: next, `CCCCC(Nc1cc(NC(=O)OCC)nc(N)c1N)C(C)O` (stereo not drawn) [Compound A174]: 5%; `CCOC(=O)Nc1cc(SC(=N)N)c([N+](=O)[O-])c(N)n1` [Compound A84]: 66%; `CCOC(=O)Nc1cc2c(c(NC(c3ccccc3)c3ccccc3)n1)N=C(c1ccccc1)C1NC=CN21` (stereo not drawn) [Compound A311]: −16%. On the same count and under the same terms, the figure for `CCOC(=O)Nc1cc2c(nc(SCc3ccccc3)n2N)c(N)n1` [Compound A120] is 34%. The same measure, in the same setting: the figure for `CCOC(=O)Nc1cc(N)c2nc(-c3ccccc3)c(N)nc2n1` [Compound A141] is 19%. Regarding `CCOC(=O)Nc1cc(NCCc2ccccc2)c2nc[nH]c2n1` [Compound A73], the “% Inh” value came to 74%.

Regarding `CCOC(=O)Nc1cc2[nH]c(-c3ccc(C(F)(F)F)cc3)nc2c(N(CCc2ccccc2)Cc2ccccc2)n1` [Compound A32], the “% Inh” value was 97%. On the same count and under the same terms, the figure for `CCOC(=O)Nc1cc(NCCc2ccccc2)c([N+](=O)[O-])c(N)n1` [Compound A82] is 68%; for `CCOC(=O)Nc1cc2c(c(N)n1)N=C(c1ccccc1)CN2` [Compound A65] it is 83%. Still for that read-out and setting: the figure for `CCOC(=O)Nc1nc(NC(=O)OCC)c([N+](=O)[O-])c(Cl)c1[N+](=O)[O-]` [Compound A202] is 0%.

With `CCOC(=O)Nc1cc2[nH]cnc2c(NC(=O)OCC)n1.Cl` [Compound A278], the “% Inh” value is reported as 0%.

Consider `CCOC(=O)Nc1cc(NC/C(CN(C)c2ccccc2)=N/O)c([N+](=O)[O-])c(N)n1` [Compound A127], for which the “% Inh” value turned out to be 30%. For the compound `CCOC(=O)Nc1cc(NC(C)C(O)c2ccc3c(c2)OCO3)c([N+](=O)[O-])c(N)n1` (stereo not drawn) [Compound A163], the “% Inh” value was determined as 8%. Take `CCOC(=O)Nc1cc(NC(c2ccccc2)c2ccccc2)c2nc[nH]c2n1` [Compound A216]: the “% Inh” value is 0%. On the same count and under the same terms, the figure for `CCOC(=O)Nc1cc(NC(C)CCCN(CC)CC)c([N+](=O)[O-])c(N)n1` (stereo not drawn) [Compound A243] is 0%; for `CCOC(=O)Nc1cc2nc(C)cnc2c(NC(=O)OCC)n1` [Compound A277] it is 0%. On the same count and under the same terms, the figure for `CCOC(=O)Nc1cc(NC(C)CCCN(CC)CC)c2ncc(-c3cc(OC)c(OC)c(OC)c3)nc2n1.Cl.Cl` (stereo not drawn) [Compound A118] is 40%.

Turning to `CCOC(=O)Nc1cc(NC(C)C(=O)c2ccc(O)cc2)c([N+](=O)[O-])c(N)n1` (stereo not drawn) [Compound A183], the “% Inh” value was 2%. Same read-out and setting: the figure for `CCOC(=O)Nc1cc(NCC(=O)CN(C)c2ccccc2)c([N+](=O)[O-])c(N)n1` [Compound A143] is 17%. With `CCOC(=O)Nc1cc(Nc2ccc(Cl)cc2)c([N+](=O)[O-])c(N)n1` [Compound A256], the “% Inh” value is recorded as 0%. The same measure, in the same setting: next, `CCOC(=O)Nc1cc(NC(c2ccccc2)c2ccccc2)c(/N=C/c2ccc(Cl)cc2Cl)c(N)n1` [Compound A263]: 0%; `CCCCC(=O)C(C)Nc1cc(NC(=O)OC)nc(N)c1[N+](=O)[O-]` (stereo not drawn) [Compound A180]: 3%; `CCOC(=O)Nc1cc(NC(c2ccccc2)c2ccccc2)c([N+](=O)[O-])c(NC(=O)OCC)n1` [Compound A175]: 5%. `CCOC(=O)Nc1cc(Cl)c2nc(-c3ccccc3)[nH]c2n1` [Compound A234]: the “% Inh” value amounted to 0%. Still for that read-out and setting: next, `CCCCNC(=O)Oc1ccc(C2=Nc3c(cc(NC(=O)OCC)nc3N)N[C@H]2C)cc1` [Compound A160]: 10%.

As for `CCOC(=O)Nc1cc2[nH]c(-c3cccc(C)c3)nc2c(N(CCc2ccccc2)Cc2ccccc2)n1` [Compound A297], the “% Inh” value came to 0%. As to `CCOC(=O)Nc1cc2c(c(N)n1)N=C(c1ccc(F)cc1)CN2` [Compound A60], the “% Inh” value worked out at 87%. Consider `CCOC(=O)Nc1cc2c(c(N)n1)N=C1c3ccccc3CCC1O2.Cl.Cl` (stereo not drawn) [Compound A85], for which the “% Inh” value was determined as 65%.

Staying with this experiment, now noted: Mycobacterium tuberculosis; M. tuberculosis H37Rv; at 12.5% μg/ml (so in the source); read-out: Primary Screen PI (% inhibition of growth).
For `CCOC(=O)Nc1cc2nc(-c3ccccc3)c(-c3ccccc3)nc2c(N)n1` [Compound 3302-89F, (5-Amino-2,3-diphenyl-pyrido[3,4-b]pyrazin-7-yl)-carbamic acid ethyl ester], the inhibition of growth at 12.5 µg/mL is 92%.

Still in this experiment, the particulars now being: in words.
Consider `CCOC(=O)Nc1cc2nc(-c3ccccc3)c(-c3ccccc3)nc2c(N)n1` [Compound 3302-89F, (5-Amino-2,3-diphenyl-pyrido[3,4-b]pyrazin-7-yl)-carbamic acid ethyl ester], for which the “activity against M. tuberculosis H37Rv in the primary screen” value was “demonstrated activity”.
